From ChEMBL document CHEMBL3507680, “University of Dundee, Gates Library screen for HepG2 cell viability”

Assay: Human HepG2 cell viability assay in 384 well format
Assay type: toxicity, cell-based
Set-up: dose 125 nL, time 70.5 hour; cytotoxicity at 70.5 h: concentration not given beside the values
Conditions: HepG2 cells, read-out: Inhibition

SMILES | cytotoxicity at 70.5 h
CCC(C(=O)NCc1ccncc1)N(c1cccc(Cl)c1)S(C)(=O)=O (stereo not given) | -2.79%
Cc1cc(C(=O)N2CCCC2)ccc1NS(C)(=O)=O | -7.84%
Cc1nc(N2C[C@H]3CNC[C@H]3C2)c2sccc2n1 | 5.86%
CSCCCn1ccnc1-c1cccc(C#N)c1 | 8.22%
CCN(CC)S(=O)(=O)c1csc(C(=O)N2CCC(C(N)=O)CC2)c1 | -2.86%
NC(=O)C1CCN(C(=O)c2cc(S(=O)(=O)N3CCCC3)cs2)CC1 | -8.68%
Cc1cc(C(=O)N2CCCCC2)ccc1NS(C)(=O)=O | -8.47%
CNC(=O)c1cc(OC)c(OC)cc1N(C)S(C)(=O)=O | -7.84%
O=C(Cc1nc(-c2ccncc2)n[nH]1)NCCCN1CCOCC1 | -10.7%
CN(C)S(=O)(=O)c1csc(C(=O)N2CCC(C(N)=O)CC2)c1 | -7.56%
COc1cccc([C@@H]2CCN(Cc3cn(C)c4ccccc34)C[C@H]2O)c1 | -10.7%
O=C1NCC2(CCCN(C(=O)Nc3cccc(-c4cscn4)c3)CC2)O1 (stereo not given) | 36%
Cc1ccc(-c2cc(C(=O)NCCC3=CCCCC3)[nH]n2)o1 | -10.6%
Cc1ccc(-c2nn(-c3cccc(F)c3)cc2CN(CCO)CCO)o1 | -17.7%
CCC(=O)N1CCC(Oc2ccc(C(=O)NCCN(C)C)cc2Cl)CC1 | 7.41%
CC(C(=O)N1CCn2cncc2C1)N1CCCC1 (stereo not given) | -0.791%
COC(=O)CN1CCCn2nc(CCC(=O)N3CCCC3)cc2C1 | 2.63%
CCOC(=O)N1CCN(CC(=O)Nc2nnc(C)s2)CC1 | -6.46%
COc1ccnc(CN2CCC(O)(c3ccc(C)cn3)CC2)c1OC | -5.69%
c1coc(-c2nc3c(c(NCc4n[nH]c5c4CCC5)n2)CCNCC3)c1 | 7.72%
O=S(=O)(NCCNc1ccc(-n2cccn2)nn1)c1ccccc1 | -2.97%
COc1ccc(-c2c[nH]c(C3CC(=O)N(CC(C)C)C3)n2)cc1 (stereo not given) | -7.11%
O=C1N(c2ccc(Cl)cc2)Cc2n[nH]c(=O)n21 | -2.4%
Cc1ccc2c(c1)C(NC(=O)C1CCN(S(C)(=O)=O)CC1)CC(C)(C)O2 (stereo not given) | -2.93%
c1cnn(Cc2ccc(CN3CCC4(CCCNC4)C3)cc2)c1 (stereo not given) | 21.4%
CC(C)=Cc1c(-c2ccccc2)ncn1CCN(C)S(C)(=O)=O | 0.261%
CCN(c1ccc(C(=O)N2CCCCC2)cc1)S(=O)(=O)CC | -9.5%

SMILES | cytotoxicity at 70.5 h
O=C(c1cncc(N2CC[C@@]3(O)CCNC[C@H]3C2)n1)N1CCCC1 | -3.92%
CCN(CCO)C[C@@H]1CN(C(=O)c2ccc(C)s2)C[C@@H]1CO | 34.8%
Cn1ccc(C2CCCCN2C(=O)c2cccc(-n3cccn3)c2)n1 (stereo not given) | 10.7%
CS(=O)(=O)CCC(=O)N1C[C@@H]2CC[C@H](C1)N(Cc1ccccc1)C2=O | -8.53%
Cc1ccc(CN2CCN(c3ccc(F)cn3)CC2=O)cc1C | -3.51%
COCCN1C[C@@H](C(=O)O)[C@H](c2ccccc2C)C1 | 31.8%
Cc1nn(C)c2ncnc(N3CCCC(C)(O)C3)c12 (stereo not given) | -6.93%
CCN1CCc2[nH]cnc2C12CCN(c1ccc(Cl)c(C(=O)O)n1)CC2 | -2.9%
Cc1cc2c(cc1CN1CCCCC1CCn1ccnc1C)OCO2 (stereo not given) | -1.13%
CCc1ccccc1NC(=O)c1cccc(N(C)S(C)(=O)=O)c1C | -4.65%
Cc1ccccc1C(=O)Nc1ccc(OC2CCN(C)CC2)cc1 | -4.55%
O=C1COc2cc(C(=O)NS(=O)(=O)c3cccc(Cl)c3)ccc2N1 | -19.1%
CCc1ncc2c(n1)CN(Cc1nc(-c3ccoc3)no1)CC2 | -3.42%
Cn1ccnc1CN1CCCN(C(=O)c2cccc(CC#N)c2)CC1 | 11.5%
COc1c(CNC2CCCN(c3ncccn3)C2)c(C(C)C)nn1C (stereo not given) | 18.4%
Cn1ccnc1CN1CCCN(C(=O)c2ccc3c(c2)OCO3)CC1 | -6.18%
CC(C(=O)N1CCCN(c2ncccc2C#N)CC1)n1cncn1 (stereo not given) | -12.1%
CCN(c1ccc(C(=O)N2CCCC2c2cnn(C)c2)cn1)C(C)C (stereo not given) | 16.2%
CC(=O)N1CCCN(C(=O)NCc2ccc(-c3ccn[nH]3)cc2)CC1 | -4.56%
Cc1ccc(OCCN(C)Cc2nc3c(cnn3C)c(=O)[nH]2)cc1 | -8.39%
COc1ccc(OCCN(C)Cc2nc3c(cnn3C)c(=O)[nH]2)cc1 | -3.93%
CS(=O)(=O)NC1CCN(C(=O)NCc2cc[nH]n2)CC1 | -8.42%
CC(=O)NC1CCCN(C(=O)NCc2cc[nH]n2)C1 (stereo not given) | -1.94%
CNC(=O)C1CCN(C(=O)NCc2ccc(-c3ccn[nH]3)cc2)CC1 | -3.31%
CNC(=O)NC(=O)CN1CCN(c2ccc(C(=O)OC)cc2)CC1C (stereo not given) | -7.85%
Cc1ncc2c(n1)CN(CC(=O)Nc1c(C)nn(C)c1C)CC2 | -1.17%
Cc1nn(C)c(C)c1CC(=O)N1CCCC(n2ccnc2C)C1 (stereo not given) | -2.12%

SMILES | cytotoxicity at 70.5 h
CN(CC(=O)Nc1cccnc1)C1CCCN(c2cccnn2)C1 (stereo not given) | 31.2%
CCN1CC(C(=O)NCCOc2ccc3c(c2)OCO3)CC1=O (stereo not given) | -1.5%
CS(=O)(=O)NCC1CCCCN1C(=O)c1cccc(C(F)(F)F)c1 (stereo not given) | -0.142%
Cn1ncc2c(=O)[nH]c(CN3CCCC3Cc3ccc(F)cc3)nc21 (stereo not given) | 1.17%
NC(=O)NCC1CCCCN1C(=O)c1cc(F)cc(F)c1 (stereo not given) | -2.44%
O=C(CCc1ccsc1)N1CCC(Nc2cccnn2)CC1 | -3.07%
CCc1nc2n(n1)CC(NCc1cnc(-c3ccccc3)nc1)CC2 (stereo not given) | 29.3%
Cc1ccc(-c2nc(CNC3CCc4ncnn4C3)no2)cc1 (stereo not given) | -1.3%
CCc1nc2n(n1)CC(NCc1noc(-c3ccc(C)cc3)n1)CC2 (stereo not given) | 0.731%
Cc1nccn1C1CCCN(C(=O)c2ccc3c(c2)CCC3)C1 (stereo not given) | 0.881%
Cc1nnc(NC(=O)CN(C)C2CCCN(c3cccnn3)C2)s1 (stereo not given) | 1.26%
COc1ccc(-c2nc(CNC3CCc4nc(C)nn4C3)no2)cc1 (stereo not given) | -3.37%
COCCCNC(=O)CN(C)C1CCCN(c2cccnn2)C1 (stereo not given) | -6.82%
O=C(CCOc1ccccc1F)N1CCCC1Cn1cccn1 (stereo not given) | 0.51%
O=C(CCNc1ncccn1)N1CCC(Nc2cccnn2)CC1 | -2.9%
CCCc1n[nH]c(C2CN(C(=O)c3ccc[nH]3)CCO2)n1 (stereo not given) | -3.89%
CCCc1n[nH]c(C2CN(C(=O)c3cccc4cn[nH]c34)CCO2)n1 (stereo not given) | -5.95%
Cc1cnn(-c2ccc(C(=O)N3CCCC(n4ccnc4C)C3)cc2)c1 (stereo not given) | -4.35%
CCCc1nc(CN2CCOC(Cn3cncn3)C2)cs1 (stereo not given) | 22.5%
CCCN1CCC(CNC(=O)C2(c3ccccc3)CCC2)C1 (stereo not given) | 18.5%
CCc1nnc2n1CCN(C(=O)CN(CC)CC)C2 | 44.6%
Cc1cnn(CC2CN(Cc3csc(C4CCCC4)n3)CCO2)c1 (stereo not given) | -0.185%
CC(C)c1nnc2n1CCN(C(=O)CN(C)Cc1ccccc1)C2 | -1.56%
COc1cc(C(=O)N(Cc2cnn(C)c2)C(C)C)ccc1C | -1.26%
CCOc1cc(C(=O)N2CCCC(n3nc(C)nc3C)C2)ccn1 (stereo not given) | -3.74%
CN(C)S(=O)(=O)c1ccc(CN2CCCC2c2ccsc2)o1 (stereo not given) | -7.08%
